Measured values taken from PMC9477487, “Multitarget drugs as potential therapeutic agents for alzheimer’s disease. A new family of 5-substituted indazole derivatives as cholinergic and BACE1 inhibitors” (Journal of Enzyme Inhibition and Medicinal Chemistry, 2022).

Key:
[1] = molecular target: T1, BACE1 (Homo sapiens, UniProt P56817); assay: BACE1 enzymatic FRET assay; format: biochemical; details: for IC50: pH 4.5, mean ± SEM; for inhibition at 10 µM: pH 4.5, 10 µM compound, read-out: BACE1 percentage of inhibition at 10 µM
T1 construct: purchased Invitrogen
T1 sequence (P56817 46-501): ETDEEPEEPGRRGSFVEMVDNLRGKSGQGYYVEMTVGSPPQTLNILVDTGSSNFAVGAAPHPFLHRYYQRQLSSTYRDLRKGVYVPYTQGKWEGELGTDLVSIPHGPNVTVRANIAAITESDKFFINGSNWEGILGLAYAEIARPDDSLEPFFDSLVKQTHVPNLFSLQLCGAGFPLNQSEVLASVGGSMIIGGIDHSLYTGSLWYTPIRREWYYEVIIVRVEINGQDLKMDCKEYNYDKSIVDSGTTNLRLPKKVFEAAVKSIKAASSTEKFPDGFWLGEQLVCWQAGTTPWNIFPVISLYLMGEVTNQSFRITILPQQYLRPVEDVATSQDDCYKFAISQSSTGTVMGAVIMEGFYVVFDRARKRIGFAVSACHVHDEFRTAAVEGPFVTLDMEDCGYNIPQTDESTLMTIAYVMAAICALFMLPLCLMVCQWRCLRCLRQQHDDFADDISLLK
Procedure: The BACE1 ([…]) assay was carried out according to the manufacturer’s described protocol which is available from Invitrogen[36].
Briefly, BACE1 in vitro assays were carried out using fluorescence resonance energy transfer (FRET). An APP-based peptide substrate (rhodamine-EVNLDAEFK-quencher, Km of 20 μM) carrying the Swedish mutation and containing rhodamine as a fluorescence donor and a quencher acceptor at each end was used. The intact substrate is weakly fluorescent and becomes highly fluorescent upon enzymatic cleavage. The assays were conducted in 50 mM sodium acetate buffer, pH 4.5, at a final enzyme concentration of 1 U/mL. Inhibitor screening was performed at 10 μM. The mixture was incubated for 60 min at 25 °C under dark conditions and then stopped with 2.5 M sodium acetate. Fluorescence was measured with a FLUOstar Optima (BMG Labtechnologies GmbH, Offenburg, Germany) microplate reader at 545 nm excitation and 585 nm emission. The assay kit was validated by the manufacturer.

[2] = molecular target: T2, BuChE from human serum (Homo sapiens, UniProt P06276); assay: In vitro BuChE inhibition assay (Ellman); format: biochemical; details: for IC50: mean ± SEM, 3 experiments, butyrylthiocholine substrate; for BuChE percentage of inhibition at 10 µM / inhibition at 10 µM: 10 µM compound; for inhibition at 10 µM: read-out: BuChE percentage of inhibition at 10 µM
T2 construct: BuChE from human serum (EC 3.1.1.8); purchased Sigma; host or cells: human serum (tissue-derived)
T2 sequence (P06276 29-602): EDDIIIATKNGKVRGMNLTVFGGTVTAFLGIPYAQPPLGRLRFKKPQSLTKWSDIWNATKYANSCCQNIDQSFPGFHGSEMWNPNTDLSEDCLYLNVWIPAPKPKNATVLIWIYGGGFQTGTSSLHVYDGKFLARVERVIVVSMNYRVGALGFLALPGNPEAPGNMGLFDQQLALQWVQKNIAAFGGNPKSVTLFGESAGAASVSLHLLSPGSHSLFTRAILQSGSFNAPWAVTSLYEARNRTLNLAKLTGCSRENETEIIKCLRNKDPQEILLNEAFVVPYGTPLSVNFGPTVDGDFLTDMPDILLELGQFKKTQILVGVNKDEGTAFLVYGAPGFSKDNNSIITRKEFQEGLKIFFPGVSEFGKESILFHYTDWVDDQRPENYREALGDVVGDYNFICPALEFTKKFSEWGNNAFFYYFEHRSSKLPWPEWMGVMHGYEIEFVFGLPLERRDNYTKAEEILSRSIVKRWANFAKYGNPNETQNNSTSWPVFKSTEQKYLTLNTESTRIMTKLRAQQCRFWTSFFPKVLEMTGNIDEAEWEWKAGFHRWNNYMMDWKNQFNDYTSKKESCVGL
Procedure: (§1) AChE from human erythrocytes (EC 3.1.1.7) (min. 500 units/mg protein in buffered aqueous solution) and BuChE from human serum (EC 3.1.1.8) (3 units/mg protein, lyophilised powder) were purchased from Sigma.
(§2) Compounds were evaluated in 100 mM phosphate buffer pH 8.0 at 30 °C, using acetylthiocholine and butyrylthiocholine (0.4 mM) as substrates, respectively. In both cases, 5,5-dithio-bis(2-nitrobenzoic) acid (DTNB, Ellman’s reagent, 0.2 mM) was used and the values of IC50 were calculated by UV spectroscopy from the absorbance changes at 412 nm. Experiments were performed in triplicate.

[3] = molecular target: T3, AChE from human erythrocytes (Homo sapiens, UniProt P22303); assay: In vitro AChE inhibition assay (Ellman); format: biochemical; details: for inhibition at 10 µM: 10 µM compound, read-out: AChE percentage of inhibition at 10 µM; for IC50: mean ± SEM, 3 experiments, acetylthiocholine substrate
T3 construct: AChE from human erythrocytes (EC 3.1.1.7); purchased Sigma; host or cells: human erythrocytes (tissue-derived)
T3 sequence (P22303 32-617 isoform P22303-2 limits assumed): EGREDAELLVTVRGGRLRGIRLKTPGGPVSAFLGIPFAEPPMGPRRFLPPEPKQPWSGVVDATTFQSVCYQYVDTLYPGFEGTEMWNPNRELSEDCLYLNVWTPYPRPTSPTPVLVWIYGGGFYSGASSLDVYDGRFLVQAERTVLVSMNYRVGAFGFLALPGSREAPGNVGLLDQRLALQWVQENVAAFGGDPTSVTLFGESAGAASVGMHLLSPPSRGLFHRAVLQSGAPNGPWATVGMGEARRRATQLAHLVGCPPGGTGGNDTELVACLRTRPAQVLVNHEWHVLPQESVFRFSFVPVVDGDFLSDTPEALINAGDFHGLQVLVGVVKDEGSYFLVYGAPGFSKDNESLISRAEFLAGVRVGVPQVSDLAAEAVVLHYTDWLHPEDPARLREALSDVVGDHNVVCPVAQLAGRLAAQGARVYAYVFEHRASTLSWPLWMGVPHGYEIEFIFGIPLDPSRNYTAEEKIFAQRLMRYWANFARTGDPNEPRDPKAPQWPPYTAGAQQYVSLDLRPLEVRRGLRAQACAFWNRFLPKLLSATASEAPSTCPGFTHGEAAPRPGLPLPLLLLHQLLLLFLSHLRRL
Procedure: as §1, §2

[4] = system: SH-SY5Y human neuroblastoma cells; assay: Amyloid-beta peptide neurotoxicity, neuroprotection in SH-SY5Y cells (MTT); format: cell-based; details: 10 µM compound added 1 h prior to 5 µM Aβ, 24 h
Procedure: SH-SY5Y human neuroblastoma cells were obtained from American Type Culture Collection. Cells were maintained at 37 °C in a 5% CO2 humidified atmosphere in DMEM-Glutamax supplemented with heat-inactivated 10% foetal bovine serum and 1% penicillin/streptomycin. All experiments with Aβ1–42 used DMEM-Glutamax without phenol in the media.
The compounds were dissolved in 100% dimethyl sulphoxide (DMSO) as a 10 mM stock and diluted with culture medium to final concentrations. Aβ1–42 powder (AnaSpec, Inc., San Jose, CA) was dissolved in acetic acid (0.1 M) obtaining a 2 μg/μL stock. Then Aβ1-42 was oligomerised in no phenol red DMEM for 24 h at 37 °C. The final concentration in cells cultures was 5 μM. All dilutions of stock were prepared fresh before addition to the culture medium.
SH-SY5Y cells were treated with 5 μM Aβ1-42 for 24 h and pre-treated or not for 1 h with increasing concentrations of compounds. After treatment, cultures were processed for a cell viability assay using MTT assay.
(§3) Cell viability was measured using the 3-(4,5-Dimethylthiazol-2-yl)-2,5-diphenyltetrazolium bromide (MTT) assay, based on the ability of viable cells to reduce yellow MTT to blue formazan. Briefly, cells cultured in 96-well plates and treated with the indicated compounds for 16 h were incubated with MTT (0.5 mg/ml, 4 h) and subsequently solubilised in DMSO. The extent of reduction of MTT was quantified by absorbance measurement at 595 nm according to the manufacturer’s protocol.

[5] = Oxygen radical absorbance capacity assay (ORAC-FL); details: for ORAC (Oxygen Radical Absorbance Capacity): pH 7.4
Procedure: The ORAC-FL method of Ou et al.[37], partially modified by Dávalos et al.[38], was followed, using a FLUOstar Optima (BMG Labtechnologies GmbH, Offenburg, Germany) with 485 excitation and 520 emission filters. 2,2′-Azobis-(amidinopropane) dihydrochloride (AAPH), (±)-6-hydroxy-2,5,7,8-tetramethylchromane-2-carboxylic acid (trolox) and fluorescein (FL) were purchased from Sigma-Aldrich. The reaction was carried out in 75 mM phosphate buffer (pH 7.4) and the final reaction mixture was 200 µL. […] The mixture was pre-incubated for 30 min at 37 °C and then AAPH solution (25 µL, 240 mM) was added rapidly using a multichannel pipette. The microplate was immediately placed in the reader and the fluorescence was recorded every 90 s. for 90 min. The microplate was automatically shaken prior to each reading. Samples were measured at four different concentrations (10^−1 µM). A blank (FL + AAPH in phosphate buffer) instead of the sample solution and four calibration solutions using trolox (10^−1 µM) was also used in each assay. All of the reaction mixtures were prepared in duplicate and at least three independent assays were performed for each sample. Raw data were exported from the Fluostar optima Software to an Excel sheet for further calculations. Antioxidant curves (fluorescence vs. time) were represented and the area under the curve (AUC) is calculated as: AUC =f1/f0+fi/f0+ … +f34/f0+ (f35/f0) where fo = initial fluorescence reading at 0 min and fi = fluorescence reading at time i. The net AUC is obtained by subtracting the AUC of the blank from that of a sample. The relative Trolox equivalent ORAC value is calculated as: Relative ORAC value =[(AUC sample - AUC blank)/(AUCT rolox - AUC blank)](molarity of trolox/molarity of sample)

[6] = system: Raw 264.7 cells; assay: Cell viability (MTT) of Raw 264.7 cells; format: cell-based; details: 10 µM
Procedure: as §3

[7] = molecular target: T4, BuChE (Homo sapiens, UniProt P06276); assay: Kinetic study of BuChE inhibition (Lineweaver-Burk plots); format: biochemical; design: key to Type of Inhibition (BuChE): M: mixed
T4 construct: BuChE from human serum (EC 3.1.1.8); purchased Sigma; host or cells: human serum (tissue-derived)
T4 sequence (P06276 29-602): as the sequence (P06276 29-602) above
Procedure: To investigate the mechanism of action of the compounds on AChE or BuChE, a kinetic analysis was performed. The experiments were carried out using combinations of four substrate concentrations and three inhibitor concentrations. Double-reciprocal Lineweaver–Burk plots of the data obtained, in which each point is the mean of three different experiments, were analysed.
Competitive inhibitors have the same y-intercept as uninhibited enzymes (since Vmax is unaffected by competitive inhibitors the inverse of Vmax also doesn’t change), but there are different slopes and x-intercepts. Non-competitive inhibition produces plots with the same x-intercept as uninhibited enzyme (Km is unaffected) but different slopes and y-intercepts. Uncompetitive inhibition causes different intercepts on both the y- and x-axes, but the same slope. Mixed inhibitors cause intersects above or below the x-axes.
The Ki, values were determined by fitting the kinetic data to a competitive, non-competitive, or mixed inhibition model by nonlinear regression analysis using GraphPad Prism[35].

SMILES | IC50 [1] [µM] | IC50 [2] [µM] | inhibition at 10 µM [3] [%] | IC50 [3] [µM] | Aβ-induced death of SH-SY5Y cells [4] | ORAC (Oxygen Radical Absorbance Capacity) [5] | Cytotoxicity on Raw 264.7 cells viability [6] | Type of Inhibition (BuChE) [7] | inhibition at 10 µM [1] [%] | BuChE inhibition mode of action (in words) [7] | BuChE percentage of inhibition at 10 µM [2] | inhibition at 10 µM [2] [%] | Antioxidant properties in relation to Trolox [5]
Clc1ccc(Cn2nc(OCc3ccc4ccccc4c3)c3cc(NCCCN4CCCCC4)ccc32)cc1Cl [Compound 4] | 1.9 ± 0.1 | 0.57 ± 0.2 | 26 | > 10 | significantly reduced cell death | 0.7 ± 0.1 μmol of Trolox equivalents/μmol of tested compound | show cytotoxicity | M | – | – | – | – | –
Nc1ccc2c(c1)c(OCc1cccc3ccccc13)nn2Cc1ccc(Cl)cc1 [Compound 33] | 5.8 ± 0.5 | > 10 | – | > 10 | – | 1.0 ± 0.1 μmol of Trolox equivalents/μmol of tested compound | – | – | – | – | – | – | –
O=C(Nc1ccc2c(c1)c(OCc1ccccc1)nn2Cc1ccccc1)c1cccc(Cl)c1Cl [Compound 7] | – | > 10 | – | 7.6 ± 0.3 | – | 0 μmol of Trolox equivalents/μmol of tested compound | – | – | 60 | – | – | – | –
COc1cc2c(cc1OC)C(=O)C(CC1CCN(Cc3ccccc3)CC1)C2 (stereo not shown) [donepezil, reference compound] | – | – | – | – | – | – | – | – | – | mixed type | – | – | –
Nc1ccc2c(c1)c(OCc1ccccc1)nn2Cc1ccccc1 [Compound 27, 5-amino-1-benzyl-3-(benzyloxy)indazole] | > 10 | > 10 | – | 8.6 ± 0.5 | – | 0.9 ± 0.1 μmol of Trolox equivalents/μmol of tested compound | – | – | 2 | – | very slight inhibition | 21 | –
Nc1ccc2c(c1)c(OCc1ccc3ccccc3c1)nn2Cc1ccc(Cl)c(Cl)c1 [Compound 31] | – | > 10 | – | 6 ± 0.5 | – | 0.63 ± 0.04 μmol of Trolox equivalents/μmol of tested compound | – | – | 69 | – | very slight inhibition | 30 | –
Nc1ccc2c(c1)c(OCc1ccccc1)nn2Cc1cccc(Cl)c1Cl [Compound 29] | > 10 | > 10 | – | > 10 | – | 0.7 ± 0.1 μmol of Trolox equivalents/μmol of tested compound | – | – | – | – | – | – | –
Nc1ccc2c(c1)c(OCc1ccc3ccccc3c1)nn2Cc1ccc2ccccc2c1 [Compound 28] | 8.9 ± 0.5 | > 10 | – | 4.1 ± 0.2 | – | 0.3 ± 0.1 μmol of Trolox equivalents/μmol of tested compound | – | – | – | – | very slight inhibition | 24 | –
O=C(Nc1ccc2c(c1)c(OCc1cccc(Cl)c1Cl)nn2Cc1cccc2ccccc12)N1CCCC1 [Compound 12] | > 10 | > 10 | – | > 10 | – | 0.5 ± 0.1 μmol of Trolox equivalents/μmol of tested compound | – | – | 43 | – | – | – | –
O=C(Nc1ccc2c(c1)c(OCc1cccc3ccccc13)nn2Cc1ccc(Cl)c(Cl)c1)N(c1ccccc1)c1ccccc1 [Compound 10] | > 10 | > 10 | 28 | > 10 | – | 0.2 ± 0.1 μmol of Trolox equivalents/μmol of tested compound | – | – | 10 | – | – | – | –
Clc1cccc(COc2nn(Cc3cccc4ccccc34)c3ccc(NCCCN4CCCCC4)cc23)c1Cl [Compound 5] | 2.7 ± 0.1 | > 10 | – | > 10 | – | 0.8 ± 0.1 μmol of Trolox equivalents/μmol of tested compound | – | – | – | – | – | – | –
CN(C(=O)Nc1ccc2c(c1)c(OCc1cccc3ccccc13)nn2Cc1ccc(Cl)cc1)c1ccccc1 [Compound 9] | > 10 | > 10 | – | > 10 | – | 0.6 ± 0.1 μmol of Trolox equivalents/μmol of tested compound | – | – | 29 | – | – | – | higher than 60%
Nc1ccc2c(c1)c(OCc1cccc3ccccc13)nn2Cc1ccc(Cl)c(Cl)c1 [Compound 34] | – | > 10 | – | 3.5 ± 0.6 | – | 0.33 ± 0.05 μmol of Trolox equivalents/μmol of tested compound | – | – | 72 | – | very slight inhibition | 32 | –
CCN(CC)C(=O)Nc1ccc2c(c1)c(OCc1cccc3ccccc13)nn2Cc1ccccc1 [Compound 8] | 9.1 ± 0.5 | > 10 | 29 | > 10 | – | 0.9 ± 0.1 μmol of Trolox equivalents/μmol of tested compound | – | – | – | – | – | – | higher than 60%
CN1CCN(C(=O)Nc2ccc3c(c2)c(OCc2ccccc2)nn3Cc2cccc(Cl)c2Cl)CC1 [Compound 11] | 2.8 ± 0.5 | > 10 | – | > 10 | – | 1.1 ± 0.1 μmol of Trolox equivalents/μmol of tested compound | – | – | – | – | – | 47 | higher than 60%
Nc1ccc2c(c1)c(OCc1cccc(Cl)c1Cl)nn2Cc1cccc2ccccc12 [Compound 30] | – | > 10 | 36 | > 10 | – | 0.8 ± 0.1 μmol of Trolox equivalents/μmol of tested compound | – | – | 79 | – | – | – | –
Nc1ccc2c(c1)c(OCc1cccc3ccccc13)nn2Cc1ccccc1 [Compound 32] | > 10 | > 10 | – | > 10 | – | 1.0 ± 0.1 μmol of Trolox equivalents/μmol of tested compound | – | – | – | – | – | – | –
